# System: DU-4475
# Assay: normalised response (% of control), CellTiter-Glo; higher = more viable cells (100 = DMSO, 0 = benzethonium chloride kill control)
# Settings: incubation time: 72 h
# Method in brief: (§1)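 Plates were normalised with 0.1 % DMSO as 100 and a positive kill control as 0. Breast cancer cell lines in 20 µl suspension had been seeded into 384-well plates with compound at 5 concentrations in 10-fold steps over a compound-specific 10,000-fold range, incubated 72 h, and read for CellTox Green fluorescence (485/520 nm) followed by CellTiter-Glo luminescence. Each value is the normalised signal at a single concentration.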
row,SMILES,normalised response
1,Cc1ccc([N+](=O)[O-])cc1S(=O)(=O)N(C)/N=C/c1cnc2ccc(Br)cn12 [PIK-75] (100 nM),8.8%
2,CC(C)(C)c1cnc(CSc2cnc(NC(=O)C3CCNCC3)s2)o1 [SNS-032] (100 nM),86.9%
3,Cn1cnc2c(F)c(Nc3ccc(Br)cc3Cl)c(C(=O)NOCCO)cc21 [Selumetinib] (100 nM),81%

# System: CAL-120
# Assay: as above
# Settings: incubation time: 72 h
# Method in brief: as §1
row,SMILES,normalised response
1,Cc1ccc([N+](=O)[O-])cc1S(=O)(=O)N(C)/N=C/c1cnc2ccc(Br)cn12 [PIK-75] (100 nM),38.3%
2,CC(C)(C)c1cnc(CSc2cnc(NC(=O)C3CCNCC3)s2)o1 [SNS-032] (100 nM),70.9%
3,Cn1cnc2c(F)c(Nc3ccc(Br)cc3Cl)c(C(=O)NOCCO)cc21 [Selumetinib] (100 nM),90%

# System: MFM-223
# Assay: as above
# Settings: incubation time: 72 h
# Method in brief: as §1
row,SMILES,normalised response
1,Cc1ccc([N+](=O)[O-])cc1S(=O)(=O)N(C)/N=C/c1cnc2ccc(Br)cn12 [PIK-75] (100 nM),31.3%
2,CC(C)(C)c1cnc(CSc2cnc(NC(=O)C3CCNCC3)s2)o1 [SNS-032] (100 nM),76.9%
3,Cn1cnc2c(F)c(Nc3ccc(Br)cc3Cl)c(C(=O)NOCCO)cc21 [Selumetinib] (100 nM),94.9%

# System: HCC1143
# Assay: as above
# Settings: incubation time: 72 h
# Method in brief: as §1
row,SMILES,normalised response
1,Cc1ccc([N+](=O)[O-])cc1S(=O)(=O)N(C)/N=C/c1cnc2ccc(Br)cn12 [PIK-75] (100 nM),38.8%
2,CC(C)(C)c1cnc(CSc2cnc(NC(=O)C3CCNCC3)s2)o1 [SNS-032] (100 nM),36.6%
3,Cn1cnc2c(F)c(Nc3ccc(Br)cc3Cl)c(C(=O)NOCCO)cc21 [Selumetinib] (100 nM),92%

# System: HCC1937
# Assay: as above
# Settings: incubation time: 72 h
# Method in brief: as §1
row,SMILES,normalised response
1,Cc1ccc([N+](=O)[O-])cc1S(=O)(=O)N(C)/N=C/c1cnc2ccc(Br)cn12 [PIK-75] (100 nM),36.9%
2,CC(C)(C)c1cnc(CSc2cnc(NC(=O)C3CCNCC3)s2)o1 [SNS-032] (100 nM),60.8%
3,Cn1cnc2c(F)c(Nc3ccc(Br)cc3Cl)c(C(=O)NOCCO)cc21 [Selumetinib] (100 nM),85%

# System: MDA-MB-468
# Assay: as above
# Settings: incubation time: 72 h
# Method in brief: as §1
row,SMILES,normalised response
1,Cc1ccc([N+](=O)[O-])cc1S(=O)(=O)N(C)/N=C/c1cnc2ccc(Br)cn12 [PIK-75] (100 nM),14.4%
2,CC(C)(C)c1cnc(CSc2cnc(NC(=O)C3CCNCC3)s2)o1 [SNS-032] (100 nM),12.6%
3,Cn1cnc2c(F)c(Nc3ccc(Br)cc3Cl)c(C(=O)NOCCO)cc21 [Selumetinib] (100 nM),89.6%

# System: SK-BR-3
# Assay: as above
# Settings: incubation time: 72 h
# Method in brief: as §1
row,SMILES,normalised response
1,Cc1ccc([N+](=O)[O-])cc1S(=O)(=O)N(C)/N=C/c1cnc2ccc(Br)cn12 [PIK-75] (100 nM),19.3%
2,CC(C)(C)c1cnc(CSc2cnc(NC(=O)C3CCNCC3)s2)o1 [SNS-032] (100 nM),33.1%
3,Cn1cnc2c(F)c(Nc3ccc(Br)cc3Cl)c(C(=O)NOCCO)cc21 [Selumetinib] (100 nM),91%

# System: BT-474
# Assay: as above
# Settings: incubation time: 72 h
# Method in brief: as §1
row,SMILES,normalised response
1,Cc1ccc([N+](=O)[O-])cc1S(=O)(=O)N(C)/N=C/c1cnc2ccc(Br)cn12 [PIK-75] (100 nM),18.7%
2,CC(C)(C)c1cnc(CSc2cnc(NC(=O)C3CCNCC3)s2)o1 [SNS-032] (100 nM),68.2%
3,Cn1cnc2c(F)c(Nc3ccc(Br)cc3Cl)c(C(=O)NOCCO)cc21 [Selumetinib] (100 nM),84.2%

# System: MDA-MB-231
# Assay: as above
# Settings: incubation time: 72 h
# Method in brief: as §1
row,SMILES,normalised response
1,Cc1ccc([N+](=O)[O-])cc1S(=O)(=O)N(C)/N=C/c1cnc2ccc(Br)cn12 [PIK-75] (100 nM),8.41%
2,CC(C)(C)c1cnc(CSc2cnc(NC(=O)C3CCNCC3)s2)o1 [SNS-032] (100 nM),29.7%
3,Cn1cnc2c(F)c(Nc3ccc(Br)cc3Cl)c(C(=O)NOCCO)cc21 [Selumetinib] (100 nM),84.7%

# System: CAL-51
# Assay: as above
# Settings: incubation time: 72 h
# Method in brief: as §1
row,SMILES,normalised response
1,Cc1ccc([N+](=O)[O-])cc1S(=O)(=O)N(C)/N=C/c1cnc2ccc(Br)cn12 [PIK-75] (100 nM),12.6%
2,CC(C)(C)c1cnc(CSc2cnc(NC(=O)C3CCNCC3)s2)o1 [SNS-032] (100 nM),31.9%
3,Cn1cnc2c(F)c(Nc3ccc(Br)cc3Cl)c(C(=O)NOCCO)cc21 [Selumetinib] (100 nM),94.1%

# System: BT-549
# Assay: as above
# Settings: incubation time: 72 h
# Method in brief: as §1
row,SMILES,normalised response
1,Cc1ccc([N+](=O)[O-])cc1S(=O)(=O)N(C)/N=C/c1cnc2ccc(Br)cn12 [PIK-75] (100 nM),8.06%
2,CC(C)(C)c1cnc(CSc2cnc(NC(=O)C3CCNCC3)s2)o1 [SNS-032] (100 nM),20.3%
3,Cn1cnc2c(F)c(Nc3ccc(Br)cc3Cl)c(C(=O)NOCCO)cc21 [Selumetinib] (100 nM),104%

# System: MCF-10A
# Assay: as above
# Settings: incubation time: 72 h
# Method in brief: as §1
row,SMILES,normalised response
1,Cc1ccc([N+](=O)[O-])cc1S(=O)(=O)N(C)/N=C/c1cnc2ccc(Br)cn12 [PIK-75] (100 nM),10.5%
2,CC(C)(C)c1cnc(CSc2cnc(NC(=O)C3CCNCC3)s2)o1 [SNS-032] (100 nM),79.4%
3,Cn1cnc2c(F)c(Nc3ccc(Br)cc3Cl)c(C(=O)NOCCO)cc21 [Selumetinib] (100 nM),45.7%

# System: HCC1599
# Assay: as above
# Settings: incubation time: 72 h
# Method in brief: as §1
row,SMILES,normalised response
1,Cc1ccc([N+](=O)[O-])cc1S(=O)(=O)N(C)/N=C/c1cnc2ccc(Br)cn12 [PIK-75] (100 nM),47.9%
2,CC(C)(C)c1cnc(CSc2cnc(NC(=O)C3CCNCC3)s2)o1 [SNS-032] (100 nM),90.2%
3,Cn1cnc2c(F)c(Nc3ccc(Br)cc3Cl)c(C(=O)NOCCO)cc21 [Selumetinib] (100 nM),113%

# System: MDA-MB-436
# Assay: as above
# Settings: incubation time: 72 h
# Method in brief: as §1
row,SMILES,normalised response
1,Cc1ccc([N+](=O)[O-])cc1S(=O)(=O)N(C)/N=C/c1cnc2ccc(Br)cn12 [PIK-75] (100 nM),11.2%
2,CC(C)(C)c1cnc(CSc2cnc(NC(=O)C3CCNCC3)s2)o1 [SNS-032] (100 nM),27.9%
3,Cn1cnc2c(F)c(Nc3ccc(Br)cc3Cl)c(C(=O)NOCCO)cc21 [Selumetinib] (100 nM),96.2%

# System: MDA-MB-453
# Assay: as above
# Settings: incubation time: 72 h
# Method in brief: as §1
row,SMILES,normalised response
1,Cc1ccc([N+](=O)[O-])cc1S(=O)(=O)N(C)/N=C/c1cnc2ccc(Br)cn12 [PIK-75] (100 nM),56%
2,CC(C)(C)c1cnc(CSc2cnc(NC(=O)C3CCNCC3)s2)o1 [SNS-032] (100 nM),46.2%
3,Cn1cnc2c(F)c(Nc3ccc(Br)cc3Cl)c(C(=O)NOCCO)cc21 [Selumetinib] (100 nM),103%

# System: Hs578T
# Assay: as above
# Settings: incubation time: 72 h
# Method in brief: as §1
row,SMILES,normalised response
1,Cc1ccc([N+](=O)[O-])cc1S(=O)(=O)N(C)/N=C/c1cnc2ccc(Br)cn12 [PIK-75] (100 nM),14.7%
2,CC(C)(C)c1cnc(CSc2cnc(NC(=O)C3CCNCC3)s2)o1 [SNS-032] (100 nM),55.6%
3,Cn1cnc2c(F)c(Nc3ccc(Br)cc3Cl)c(C(=O)NOCCO)cc21 [Selumetinib] (100 nM),89.4%

# System: CAL-148
# Assay: as above
# Settings: incubation time: 72 h
# Method in brief: as §1
row,SMILES,normalised response
1,Cc1ccc([N+](=O)[O-])cc1S(=O)(=O)N(C)/N=C/c1cnc2ccc(Br)cn12 [PIK-75] (100 nM),44.8%
2,CC(C)(C)c1cnc(CSc2cnc(NC(=O)C3CCNCC3)s2)o1 [SNS-032] (100 nM),42.8%
3,Cn1cnc2c(F)c(Nc3ccc(Br)cc3Cl)c(C(=O)NOCCO)cc21 [Selumetinib] (100 nM),94%

# System: CAL-85-1
# Assay: as above
# Settings: incubation time: 72 h
# Method in brief: as §1
row,SMILES,normalised response
1,Cc1ccc([N+](=O)[O-])cc1S(=O)(=O)N(C)/N=C/c1cnc2ccc(Br)cn12 [PIK-75] (100 nM),14.4%
2,CC(C)(C)c1cnc(CSc2cnc(NC(=O)C3CCNCC3)s2)o1 [SNS-032] (100 nM),28.2%
3,Cn1cnc2c(F)c(Nc3ccc(Br)cc3Cl)c(C(=O)NOCCO)cc21 [Selumetinib] (100 nM),100%

# System: HDQ-P1
# Assay: as above
# Settings: incubation time: 72 h
# Method in brief: as §1
row,SMILES,normalised response
1,Cc1ccc([N+](=O)[O-])cc1S(=O)(=O)N(C)/N=C/c1cnc2ccc(Br)cn12 [PIK-75] (100 nM),22.1%
